From ChEMBL document CHEMBL1128014, “Synthesis and biological activity of a potent antiplatelet 7-aminofurochromone” (Bioorg Med Chem Lett, 1994)

Tests used:
[1] = organism: Homo sapiens; test: Potency to inhibit ADP-induced human platelet aggregation was determined relative to compound 1(5-Methyl-3-morpholin-4-yl-6-(2-naphthalene-1-one); format: functional
[2] = organism: Homo sapiens; test: Compound was tested for its ability to inhibit ADP-induced human platelet aggregation; format: functional
[3] = system: Canis familiaris; test: Effect on heart rate was determined at an iv dose of 100 ug/kg plus a constant infusion of 10 ug/kg/min in a canine model; format: functional, Canis lupus familiaris
[4] = system: Canis familiaris; test: Effect on heart rate was determined at an iv dose of 3 ug/kg/60 min in canine model; format: functional, Canis lupus familiaris
[5] = system: Canis familiaris; test: Effect on Cyclical Flow Reductions induced by intracoronary platelet aggregation in stenosed canine coronary arteries at an iv dose of 3 ug/kg/60 min in canine model; format: functional, Canis lupus familiaris
[6] = system: Canis familiaris; test: Effect on mean arterial pressure was determined at an iv dose of 100 ug/kg plus a constant infusion of 10 ug/kg/min in canine model; format: functional, Canis lupus familiaris, Artery
[7] = system: Canis familiaris; test: Time interval between end of drug treatment and restoration of CFR pattern of blood flow at an iv dose of 30 ug/kg plus a constant infusion of 3 ug/kg/min in canine model; format: functional, Canis lupus familiaris
[8] = system: Canis familiaris; test: Effect on Cyclical Flow Reductions induced by intracoronary platelet aggregation in stenosed canine coronary arteries at an iv dose of 10 ug/kg/60 min in a canine model; format: functional, Canis lupus familiaris
[9] = system: Canis familiaris; test: Effect on mean arterial pressure was determined at an iv dose of 3 ug/kg/60 min in canine model; format: functional, Canis lupus familiaris, Artery
[10] = organism: Homo sapiens; test: Effect on aggregation of thrombin-stimulated washed human platelets at a concentration of 0.3 uM; format: functional
[11] = system: Canis familiaris; test: Effect on Cyclical Flow Reductions induced by intracoronary platelet aggregation in stenosed canine coronary arteries at an iv dose of 100 ug/kg plus a constant infusion of 10 ug/kg/min in canine model; format: functional, Canis lupus familiaris
[12] = organism: Homo sapiens; test: Effect on PGI2-stimulated cAMP in washed human platelets at a concentration of 0.3 uM +1 ng/mL of PGI2; pmol/5E8 platelets; format: functional
[13] = system: Canis familiaris; test: Time interval between start of drug treatment and first change in CFR pattern of blood flow at an iv dose of 100 ug/kg plus a constant infusion of 10 ug/kg/min; format: functional, Canis lupus familiaris
[14] = system: Canis familiaris; test: Time interval between end of drug treatment and restoration of CFR pattern of blood flow at an iv dose of 10 ug/kg/60 min in a canine model; format: functional, Canis lupus familiaris
[15] = system: Canis familiaris; test: Time interval between start of drug treatment and first change in CFR pattern of blood flow at an iv dose of 10 ug/kg/60 min in a canine model; format: functional, Canis lupus familiaris
[16] = organism: Homo sapiens; test: Effect on cAMP levels in washed platelets at a concentration of 0.1 uM; pmol/5E8 platelets; format: functional
[17] = organism: Homo sapiens; test: Effect on cAMP levels in washed platelets at a concentration of 0.3 uM; pmol/5E8 platelets; format: functional
[18] = system: Canis familiaris; test: Effect on Cyclical Flow Reductions induced by intracoronary platelet aggregation in stenosed canine coronary arteries at an iv dose of 30 ug/kg plus a constant infusion of 3 ug/kg/min in canine model; format: functional, Canis lupus familiaris
[19] = system: Canis familiaris; test: Effect on mean arterial pressure was determined at an iv dose of 30 ug/kg plus a constant infusion of 3 ug/kg/min in canine model; format: functional, Canis lupus familiaris, Artery
[20] = organism: Homo sapiens; test: Effect on aggregation of thrombin-stimulated washed human platelets at a concentration of 0.1 uM; format: functional
[21] = system: Canis familiaris; test: Effect on heart rate was determined at an iv dose of 30 ug/kg plus a constant infusion of 3 ug/kg/min in a canine model; format: functional, Canis lupus familiaris
[22] = system: Canis familiaris; test: Time interval between end of drug treatment and restoration of CFR pattern of blood flow at an iv dose of 10 ug/kg plus a constant infusion of 1 ug/kg/min in canine model; format: functional, Canis lupus familiaris
[23] = system: Canis familiaris; test: Time interval between end of drug treatment and restoration of CFR pattern of blood flow at an iv dose of 3 ug/kg/60 min in canine model; format: functional, Canis lupus familiaris
[24] = system: Canis familiaris; test: Effect on mean arterial pressure was determined at an iv dose of 10 ug/kg plus a constant infusion of 1 ug/kg/min in canine model; format: functional, Canis lupus familiaris, Artery
[25] = organism: Homo sapiens; test: Effect on aggregation of thrombin-stimulated washed human platelets at a concentration of 1 uM; format: functional
[26] = system: Canis familiaris; test: Effect on heart rate was determined at an iv dose of 10 ug/kg plus a constant infusion of 1 ug/kg/min in a canine model; format: functional, Canis lupus familiaris
[27] = system: Canis familiaris; test: Effect on mean arterial pressure was determined at an iv dose of 10 ug/kg/60 min in a canine model; format: functional, Canis lupus familiaris, Artery
[28] = system: Canis familiaris; test: Time interval between start of drug treatment and first change in CFR pattern of blood flow at an iv dose of 30 ug/kg plus a constant infusion of 3 ug/kg/min; format: functional, Canis lupus familiaris
[29] = system: Canis familiaris; test: Effect on Cyclical Flow Reductions induced by intracoronary platelet aggregation in stenosed canine coronary arteries at an iv dose of 10 ug/kg plus a constant infusion of 1 ug/kg/min in canine model; format: functional, Canis lupus familiaris
[30] = system: Canis familiaris; test: Effect on heart rate was determined at an iv dose of 10 ug/kg/60 min in a canine model; format: functional, Canis lupus familiaris
[31] = system: Canis familiaris; test: Time interval between end of drug treatment and restoration of CFR pattern of blood flow at an iv dose of 100 ug/kg plus a constant infusion of 10 ug/kg/min in canine model; format: functional, Canis lupus familiaris

Cc1c2oc(CN3CCN(C)CC3)cc2cc2c(=O)cc(N3CCOCC3)oc12 was tested, and the Relative potency [1] was 0.9 and the IC50 [2] was 9.1 µM.
Work on Cc1c2c(cc3c(=O)cc(N4CCOCC4)oc13)CC(CN1CCSCC1)O2 (stereo not given) yielded a Relative potency [1] of 2.4 and an IC50 [2] of 3.6 µM.
Molecule Cc1c2oc(CN3CCSCC3)cc2cc2c(=O)cc(N3CCOCC3)oc12 has a Heart rate [3] of 116%, a Heart rate [4] of 104% and a CFR rating [5] of 3. The “Mean arterial blood pressure” value [6] was 74%, the Offset time [7] was 34 min and the CFR rating [8] was 3. For the same molecule, the “Mean arterial blood pressure” value [9] was 93%, the Aggregation [10] was 0% and the CFR rating [11] was 3. It also gave an Activity [12] of 163.1, an Onset time [13] of 1 min and an Offset time [14] of 36 min. The Onset time [15] was 8 min, the Activity [16] was 13.2 and the Activity [17] was 36.1. The CFR rating [18] was 2, the “Mean arterial blood pressure” value [19] was 88% and the Activity [20] was 25.7. The Aggregation [20] was 14%, the Heart rate [21] was 112% and the Offset time [22] was 3 min. The Offset time [23] was 27 min, the “Mean arterial blood pressure” value [24] was 99% and the Relative potency [1] was 4.5. For the same molecule, the Activity [25] was 25.7, the Aggregation [25] was 0% and the Heart rate [26] was 106%. The “Mean arterial blood pressure” value [27] was 86%, the Onset time [28] was 1 min and the CFR rating [29] was 1. It also gave a Heart rate [30] of 116%, an Offset time [31] greater than 60 min and an IC50 [2] of 0.35 µM.
With Cc1c2c(cc3c(=O)cc(N4CCOCC4)oc13)CC(CN1CCCCC1)O2 (stereo not given) the Relative potency [1] was 0.5 and the IC50 [2] was 6.2 µM.
With Cc1c2oc(CN3CCCC3)cc2cc2c(=O)cc(N3CCOCC3)oc12 the Relative potency [1] was 0.5 and the IC50 [2] was 15.4 µM.
In the case of Cc1c(OCCN2CCN(C)CC2)ccc2c(=O)cc(N3CCOCC3)oc12, the Relative potency [1] is reported as 1 and the IC50 [2] is reported as 8.6 µM.
For Cc1c2c(cc3c(=O)cc(N4CCOCC4)oc13)CC(CN1CCN(C)CC1)O2 (stereo not given), the Relative potency [1] was 0.5 and the IC50 [2] was 5.6 µM.
